Test results published in ChEMBL document CHEMBL4138057, “Structure-guided optimization of quinoline inhibitors of Plasmodium N-myristoyltransferase” (Medchemcomm, 2017).

Molecular target: T1, Glycylpeptide N-tetradecanoyltransferase (Plasmodium falciparum (isolate 3D7), UniProt Q8ILW6)
T1 sequence (Q8ILW6 whole entry): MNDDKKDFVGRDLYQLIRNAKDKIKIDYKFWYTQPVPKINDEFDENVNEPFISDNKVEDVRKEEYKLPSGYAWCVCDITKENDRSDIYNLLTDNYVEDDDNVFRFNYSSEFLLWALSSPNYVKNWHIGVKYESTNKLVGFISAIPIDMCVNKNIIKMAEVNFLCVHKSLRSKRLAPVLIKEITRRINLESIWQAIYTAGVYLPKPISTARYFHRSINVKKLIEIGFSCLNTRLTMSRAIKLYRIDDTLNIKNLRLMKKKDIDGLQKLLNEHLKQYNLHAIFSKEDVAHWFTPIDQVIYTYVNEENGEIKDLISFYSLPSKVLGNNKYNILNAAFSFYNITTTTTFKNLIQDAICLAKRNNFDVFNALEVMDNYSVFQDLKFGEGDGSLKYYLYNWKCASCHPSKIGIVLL
Assay: Inhibition of Plasmodium falciparum NMT preincubated for 10 to 20 mins followed by Hs pp60src (2 to 16 residues) substrate addition measured after 60 mins by CPM-based fluorescence assay
Details: read-out: Ki(app)

Ki [µM] | Compound
> 10 | CCOC(=O)c1cnc2ccc(OCc3ccccc3)cc2c1SCCC#N
> 10 | CCOC(=O)c1cnc2ccc(OCc3ccccc3)cc2c1S(=O)(=O)CC
> 10 | CCSc1c(CO)cnc2ccc(OCc3ccccc3)cc12
